Experiments:
[1] = target: Trx-6×His-BCL6 (human BCL6 BTB domain covering amino-acid sequence 5-129) (Homo sapiens (Human), UniProt P41182); assay: HTRF in vitro assay (BCL6 / BCOR-AF633 peptide); assay type: binding; conditions: for activity in the HTRF assay: result in words
Description: The % inhibition at each concentration was calculated by normalising FRET ratio to the appropriate high (DMSO with all reagents) and low (DMSO without BCL6) controls.

[2] = target: BCL6-NCOR2(SMRT) corepressor protein-protein interaction (Homo sapiens (Human), UniProt P41182); assay: NanoBRET cell assay; assay type: cell-based; conditions: further generated data; transfected HEK293T cells, 6 hr; read-out: NanoBRET cell pIC50 (converted)
Description: A cellular nano-Bioluminescence Resonance Energy Transfer (nanoBRET) assay (Promega NanoBRET Nano-Glo Detection System, catalogue number N1662) was used to detect inhibition of the BCL6-NCOR2(SMRT) corepressor protein-protein interaction. DNA encoding full length BCL6 and NCOR2 were inserted into pFC32K.NanoLuc and pFC14K.HaloTag vectors (Promega) to produce C-terminal tagged fusion proteins BCL6-nanoLuc and NCOR2-HaloTag, respectively. HEK293T cells were plated (5×10^5) in T75 tissue culture flask and bulk transfected 48 hours later with Fugene 6 (Promega cat. #E2691) reagent and 18 μg total DNA plasmids encoding BCL6-nanoLuc as donor and NCOR2-HaloTag as acceptor, at a donor:acceptor DNA ratio of 1:25. At 24 hr post-transfection, HEK293T cells were collected and stored in liquid nitrogen in 90% FBS (PAN Biotech UK) and 10% DMSO. […] Frozen transfected HEK293T cells were thawed, centrifuged and freezing medium was replaced by phenol red-free OptiMEM+4% FBS (Life Technology). […] Cells were incubated for 6 hr at 37° C./5% C02 then NanoBRET furimazine substrate (Promega) was added to give a final concentration of 10 μM. After a short centrifugation the plates were read on an Envision (Perkin Elmer) plate reader equipped with a LUM/D600 Dual mirror, Lum 450/40 nm bandpass and D605 nm longpass filters, with a 0.2 sec reading to determine the BRET ratio. The % inhibition at each test concentration was calculated by normalising the BRET ratio to the appropriate high and low controls.

[3] = further generated data, 1 nM Trx-6×His-BCL6, 300 nM BCOR-AF633 peptide, 0.5 nM anti-6×His-Terbium cryptate
[4] = initially generated data, 10 nM Trx-6×His-BCL6, 300 nM BCOR-AF633 peptide, 1 nM anti-6×His-Terbium cryptate

SMILES | HTRF pIC50 [1, 3] | IC50 [2] [nM] | HTRF pIC50 [1, 4] | activity in the HTRF assay [1]
Cn1c(=O)n(CCC(C)(C)O)c2cc(Nc3nc(N4[C@@H]5CCC[C@H]4CC5)ncc3Cl)ccc21 [Example 35m, 5-((2-((1R,5S)-8-azabicyclo[3.2.1]octan-8-yl)-5-chloropyrimidin-4-yl)amino)-3-(3-hydroxy-3-methylbutyl)-1-methyl-1,3-dihydro-2H-benzo[d]imidazol-2-one] | 6.81 | 741 | – | –
Cn1c(=O)n(CCC2(C)OCCO2)c2cc(Nc3ccnc(Cl)c3C#N)ccc21 [Example 19c] | 5.45 | – | – | –
COC(=O)[C@@H](N)CCn1c(=O)n(C)c2ccc(Nc3ccnc(Cl)c3C#N)cc21 [Example 6, Methyl (2S)-2-amino-4-[6-[(2-chloro-3-cyano-4-pyridyl)amino]-3-methyl-2-oxo-benzimidazol-1-yl]butanoate] | 6.00 | – | 5.97 | –
Cc1nccc(Nc2ccc3c(c2)n(C)c(=O)n3C)c1C#N [4-((1,3-dimethyl-2-oxo-2,3-dihydro-1H-benzo[d]imidazol-5-yl)amino)-2-methylnicotinonitrile] | – | – | – | did not exhibit the desired activity
Cc1cc(C)n(-c2cc(Nc3ccc4c(c3)n(CCC(C)(C)O)c(=O)n4C)c(C#N)cn2)n1 [Example 15o] | 5.88 | – | – | –
Cn1c(=O)n(CCC(C)(C)O)c2cc(Nc3nc(N4CCCCC4)ncc3Cl)ccc21 [Example 20d] | 5.92 | – | – | –
Cn1c(=O)n(C)c2cc(Nc3ccnc(C(F)(F)F)c3C#N)ccc21 [4-((1,3-dimethyl-2-oxo-2,3-dihydro-1H-benzo[d]imidazol-5-yl)amino)-2-(trifluoromethyl)nicotinonitrile] | – | – | – | did not exhibit the desired activity
Cn1c(=O)n(CCC(C)(C)O)c2cc(Nc3ccnc(Br)c3C#N)ccc21 [Example 1k, 2-bromo-4-[[3-(3-hydroxy-3-methyl-butyl)-1-methyl-2-oxo-benzimidazol-5-yl]amino]pyridine-3-carbonitrile] | 5.82 | – | 5.63 | –
Cc1cc(Nc2ccc3c(c2)n(CC[C@@H](C)O)c(=O)n3C)c(C#N)c(Cl)n1 [Example 1l, 2-chloro-4-[[3-[(3R)-3-hydroxybutyl]-1-methyl-2-oxo-benzimidazol-5-yl]amino]-6-methyl-pyridine-3-carbonitrile] | 5.53 | – | 5.62 | –
C[C@@H](O)CCn1c(=O)n(C)c2ccc(Nc3cc(Cl)ncc3Cl)cc21 [Example 1m, 5-[(2,5-dichloro-4-pyridyl)amino]-3-[(3R)-3-hydroxybutyl]-1-methyl-benzimidazol-2-one] | 5.47 | – | 5.62 | –
CNC(=O)c1cc(Nc2ccc3c(c2)n(CCC(C)(C)O)c(=O)n3CC2CCOCC2)c(C#N)c(Cl)n1 [Example 1g, 6-chloro-5-cyano-4-[[3-(3-hydroxy-3-methyl-butyl)-2-oxo-1-(tetrahydropyran-4-ylmethyl)benzimidazol-5-yl]amino]-N-methyl-pyridine-2-carboxamide] | 5.95 | – | 5.82 | –
COC(=O)[C@H](N)CCn1c(=O)n(C)c2ccc(Nc3ccnc(Cl)c3C#N)cc21 [Example 12, Methyl (2R)-2-amino-4-[6-[(2-chloro-3-cyano-4-pyridyl)amino]-3-methyl-2-oxo-benzimidazol-1-yl]butanoate] | 5.68 | – | 5.79 | –
Cn1c(=O)n(CC(O)C(C)(C)O)c2cc(Nc3ccnc(Cl)c3C#N)ccc21 (centres unmarked) [Example 10a, 2-Chloro-4-[[3-(2,3-dihydroxy-3-methyl-butyl)-1-methyl-2-oxo-benzimidazol-5-yl]amino]pyridine-3-carbonitrile] | 5.93 | – | 5.81 | –
Cn1c(=O)n(CCC(C)(C)O)c2cc(Nc3nc(N4CCCC(CO)C4)ncc3Cl)ccc21 (centres unmarked) [Example 42g, 5-((5-chloro-2-(3-(hydroxymethyl)piperidin-1-yl)pyrimidin-4-yl)amino)-3-(3-hydroxy-3-methylbutyl)-1-methyl-1,3-dihydro-2H-benzo[d]imidazol-2-one] | 6.92 | – | – | –
CCC1(Cn2c(=O)n(C)c3ccc(Nc4nc(N5C[C@@H](C)O[C@@H](C)C5)ncc4Cl)cc32)CNC(=O)O1 (some centres unmarked) [Example 20n] | 6.42 | – | – | –
Cn1c(=O)n(CCC(C)(C)O)c2cc(Nc3nc(Cl)ncc3Cl)ncc21 [6-((2,5-dichloropyrimidin-4-yl)amino)-1-(3-hydroxy-3-methylbutyl)-3-methyl-1,3-dihydro-2H-imidazo[4,5-c]pyridin-2-one] | – | – | – | did not exhibit the desired activity
Cn1c(=O)n(CCC(C)(C)O)c2cc(Nc3ccnc(Cl)c3C(F)F)ccc21 [5-((2-chloro-3-(difluoromethyl)pyridin-4-yl)amino)-3-(3-hydroxy-3-methylbutyl)-1-methyl-1,3-dihydro-2H-benzo[d]imidazol-2-one] | – | – | – | did not exhibit the desired activity
Cn1c(=O)n(C[C@@H]2CCCN2CC2CC2)c2cc(Nc3ccnc(Cl)c3C#N)ccc21 [(S)-2-chloro-4-((3-((1-(cyclopropylmethyl)pyrrolidin-2-yl)methyl)-1-methyl-2-oxo-2,3-dihydro-1H-benzo[d]imidazol-5-yl)amino)nicotinonitrile] | – | – | – | did not exhibit the desired activity
CCOC(=O)c1cc(Nc2ccc3c(c2)n(CCC(C)C(=O)OC)c(=O)n3C)n2nccc2n1 (centres unmarked) [Example 8, Ethyl 7-[[3-(4-methoxy-3-methyl-4-oxo-butyl)-1-methyl-2-oxo-benzimidazol-5-yl]amino]pyrazolo[1,5-a]pyrimidine-5-carboxylate] | 6.01 | – | 5.83 | –

Further lines, results first:

HTRF pIC50 [1, 3] | IC50 [2] [nM] | HTRF pIC50 [1, 4] | activity in the HTRF assay [1] | SMILES
6.56 | 1480 | – | – | CC(C)(O)CCn1c(=O)n(CCC(C)(C)O)c2cc(Nc3nc(N4CC(C)(C)OC(C)(C)C4)ncc3Cl)ccc21 [Example 35k, 5-((5-chloro-2-(2,2,6,6-tetramethylmorpholino)pyrimidin-4-yl)amino)-1,3-bis(3-hydroxy-3-methylbutyl)-1,3-dihydro-2H-benzo[d]imidazol-2-one]
6.55 | 2190 | – | – | Cn1c(=O)n(CCC(C)(C)O)c2cc(Nc3nc(N4CCOC(C(F)(F)F)C4)ncc3Cl)ccc21 (centres unmarked) [Example 28b, 5-((5-chloro-2-(2-(trifluoromethyl)morpholino)pyrimidin-4-yl)amino)-3-(3-hydroxy-3-methylbutyl)-1-methyl-1,3-dihydro-2H-benzo[d]imidazol-2-one]
6.56 | – | – | – | Cn1c(=O)n(CCC(C)(C)O)c2cc(Nc3nc(N4CCC(CN5CCOCC5)CC4)ncc3Cl)ccc21 [Example 42c, 5-((5-chloro-2-(4-(morpholinomethyl)piperidin-1-yl)pyrimidin-4-yl)amino)-3-(3-hydroxy-3-methylbutyl)-1-methyl-1,3-dihydro-2H-benzo[d]imidazol-2-one]
6.49 | – | – | – | C[C@@H]1CN(c2ncc(Cl)c(Nc3ccc4c(c3)n(CCC(C)(C)O)c(=O)n4CCO)n2)C[C@H](C)C1(F)F [Example 40a, 5-[[5-chloro-2-[(3S,5R)-4,4-difluoro-3,5-dimethyl-1-piperidyl]pyrimidin-4-yl]amino]-1-(2-hydroxyethyl)-3-(3-hydroxy-3-methyl-butyl)benzimidazol-2-one]
6.58 | – | – | – | Cn1ncc2c1CN(c1ncc(Cl)c(Nc3ccc4c(c3)n(CCC(C)(C)O)c(=O)n4C)n1)CC2 [Example 42f, 5-((5-chloro-2-(1-methyl-1,4,5,7-tetrahydro-6H-pyrazolo[3,4-c]pyridin-6-yl)pyrimidin-4-yl)amino)-3-(3-hydroxy-3-methylbutyl)-1-methyl-1,3-dihydro-2H-benzo[d]imidazol-2-one]
5.76 | – | – | – | CCC1(Cn2c(=O)n(C)c3ccc(Nc4ccnc(Cl)c4C#N)cc32)CNC(=O)O1 (centres unmarked) [Example 22c]
5.40 | – | – | – | CC(C)C(C)(O)CCn1c(=O)n(C)c2ccc(Nc3ccnc(Cl)c3C#N)cc21 (centres unmarked) [Example 27f, 2-chloro-4-((3-(3-hydroxy-3,4-dimethylpentyl)-1-methyl-2-oxo-2,3-dihydro-1H-benzo[d]imidazol-5-yl)amino)nicotinonitrile]
6.36 | – | – | – | Cn1c(=O)n(CCC(C)(C)O)c2cc(Nc3nc(N4C[C@@H](F)[C@@H](F)C4)ncc3Cl)ccc21 [Example 35h, 5-((5-chloro-2-((3R,4S)-3,4-difluoropyrrolidin-1-yl)pyrimidin-4-yl)amino)-3-(3-hydroxy-3-methylbutyl)-1-methyl-1,3-dihydro-2H-benzo[d]imidazol-2-one]

Reference: patent publication US12110286B2, “Benzimidazolone derived inhibitors of BCL6” (Cancer Research Technology Limited, priority 2017, dated 2024)
